The target in test [1] is T1, STEAP2 (Homo sapiens, UniProt Q8NFT2).
T1 construct: full-length (490 residues), C-terminal His6-tag cleaved by TEV protease; High Five or Sf9 insect cells; LMNG or GDN; homotrimer
T1 sequence (Q8NFT2 1-490): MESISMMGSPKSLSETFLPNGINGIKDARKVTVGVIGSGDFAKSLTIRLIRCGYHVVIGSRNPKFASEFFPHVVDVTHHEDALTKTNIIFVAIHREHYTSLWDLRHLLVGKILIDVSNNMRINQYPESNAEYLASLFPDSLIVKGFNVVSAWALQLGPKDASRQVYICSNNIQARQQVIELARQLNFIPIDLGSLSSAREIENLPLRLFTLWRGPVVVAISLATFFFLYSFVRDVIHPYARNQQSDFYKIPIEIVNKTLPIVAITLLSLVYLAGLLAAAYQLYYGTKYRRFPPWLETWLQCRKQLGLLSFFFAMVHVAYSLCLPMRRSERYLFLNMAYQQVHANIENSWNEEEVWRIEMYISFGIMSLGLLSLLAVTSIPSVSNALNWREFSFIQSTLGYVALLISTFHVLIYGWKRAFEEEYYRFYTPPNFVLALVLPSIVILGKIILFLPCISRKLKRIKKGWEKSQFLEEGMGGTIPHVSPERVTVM
Description: cryo-EM structure, […] Å. Type of test: binding.

The target in test [2] is T2, cytochrome b5 reductase (b5R) (Mus musculus, UniProt Q9DCN2).
T2 construct: gene Cyb5r3
T2 sequence (Q9DCN2 24-301): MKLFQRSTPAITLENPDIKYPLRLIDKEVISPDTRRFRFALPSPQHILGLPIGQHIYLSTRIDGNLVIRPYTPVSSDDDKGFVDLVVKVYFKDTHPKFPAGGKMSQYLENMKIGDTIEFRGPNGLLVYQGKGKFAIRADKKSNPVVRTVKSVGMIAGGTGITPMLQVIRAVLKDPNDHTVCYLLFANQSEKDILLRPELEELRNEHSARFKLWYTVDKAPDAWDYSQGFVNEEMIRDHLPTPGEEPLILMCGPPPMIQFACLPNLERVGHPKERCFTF
Kind of test: rapid-scan stopped-flow FAD reduction. Type of test: biochemical. As to conditions: anaerobic, 1.5 μM b5R with 1.5 μM STEAP1 and 10 μM NADH.

Consider three compounds from article PMC10659578, “Mechanism of stepwise electron transfer in six-transmembrane epithelial antigen of the prostate (STEAP) 1 and 2” (eLife, 2023).

Turning to `NC(=O)c1ccc[n+]([C@@H]2O[C@H](COP(=O)(O)OP(=O)(O)OC[C@H]3O[C@@H](n4cnc5c(N)ncnc54)[C@H](OP(=O)(O)O)[C@@H]3O)[C@@H](O)[C@H]2O)c1` [NADP^+], in test [1] (complex with FAD and heme, OxRD site), the “cryo-EM structure, 3.2 Å” value was “Heme, FAD, and NADP^+ are unambiguously resolved in the density map”.
As to `Cc1cc2nc3c(=O)[nH]c(=O)nc-3n(C[C@H](O)[C@H](O)[C@H](O)COP(=O)(O)OP(=O)(O)OC[C@H]3O[C@@H](n4cnc5c(N)ncnc54)[C@H](O)[C@@H]3O)c2cc1C` [FAD], the “cryo-EM structure, 3.2 Å” value in test [1] (complex with NADP+ and heme, extended conformation, isoalloxazine ring in TMD, adenine stacks on Trp152 of OxRD) is “Heme, FAD, and NADP^+ are unambiguously resolved in the density map”.
For the compound `NC(=O)C1=CN([C@@H]2O[C@H](COP(=O)(O)OP(=O)(O)OC[C@H]3O[C@@H](n4cnc5c(N)ncnc54)[C@H](O)[C@@H]3O)[C@@H](O)[C@H]2O)C=CC1` [NADH], the “rapid-scan stopped-flow FAD reduction” value in test [2] is “intermediate B is due to fast FAD reduction in b5R by NADH”.
